SMILES strings stand for the structures. “And” between values parts separate entries of the source, which are not always exact repeats. Equal entries are not always repeated.

One series addresses T1, α1β2γ2 GABAA receptors (Rattus norvegicus, UniProt P18508+P62813).
T1 construct: expressed in transfected cells; host or cells: Xenopus laevis oocytes, cRNA microinjection
Put plainly: Stimulation of currents elicited by GABA (EC3-5), two-electrode voltage clamp, receptors expressed in Xenopus oocytes. Type of series: cell-based. The source says: (§1) 7-Chloro-3-(5-dimethylaminomethyl-[1,2,4]oxadiazol-3-yl)-5-methyl-4,5-dihydro-imidazol[1,5,-a][1,4]benzodiazepine-6-one was used to test the effects of the compound of formula (II): […]
(§2) Similar procedures were chosen as for the investigation of other GABAA receptor subunit specific substances (e.g., Baur et al., 2005; Mol. Pharmacol. 68, 787-792).
(§3) Lobes of the ovary containing the follicles were obtained by surgical procedures from female Xenopus laevis. Follicles were singled out using a platinum loop. Fifty nL of cRNA solution at a ratio of αx:β2:γ2 of 1:1:5 (3.3-10 nM αx (x=1, 2, 3, 5); 3.3-10 nM β2; 16.7-50 nM γ2) (Boileau et al., 2002; Neuropharmacology 43, 695-700) were microinjected into Xenopus follicles. Several hours after microinjection the follicles were freed of follicular layers and adhering connective tissue by a collagenase/hypertonic shock procedure (Sigel, 1987; J. Physiol. (Land) 386, 73-90). Oocytes were kept at constant 18° C. until measurement (1-4 days) in a modified Barth solution (88 mM NaCl, 1 mM KCl, 2.4 mM NaHCO3, 10 mM Hepes-NaOH (pH 7.5), 0.82 mM MgSO4×7H2O, 0.34 mM Ca(NO3)2×4H2O, 0.41 mM CaCl2×2H2O, 100 U Penicillin/mL, 100 μg Streptomycin/mL, sterile filtered).
Currents were measured using a home-built amplifier in combination with a xy-recorder or were digitized using a MacLab/200 (AD Instruments) and stored on a computer. Xenopus oocytes were voltage clamped using the two-electrode voltage clamp technique (electrode resistance about 0.8 MΩ) at −80 mV. The medium contained 90 mM NaCl, 1 mM KCl, 1 mM MgCl2, 1 mM CaCl2, 10 mM Na-Hepes (pH 7.4) and 0.5% DMSO.
GABA was applied for 20-50 seconds without or in combination with other drugs and a washout period of 4 minutes was allowed to ensure full recovery from desensitization, which was experimentally determined. The perfusion solution (6 mL/min) was applied through a glass capillary with an inner diameter of 1.35 mm, the mouth of which was placed about 0.4 mm from the surface of the oocyte. The rate of solution change under our conditions has been estimated 70% within less than 0.5 s (Sigel et al., 1990; Neuron 5, 703-711). The entire perfusion system and the assay chamber were cleaned between drug applications by washing with DMSO.
Data is given as mean±SD, except in the figures where data is shown for clarity as mean±SEM. Current stimulation was calculated as follows: stimulation (%)=((I(GABA+modulator)−I(GABA))/I(GABA))×100%, where I is the current amplitude. Where indicated, the stimulation was standardized to the stimulation by 1 μM diazepam (100%). To obtain FIGS. 1-4, values for current stimulation obtained at a given concentration of modulator at a given subunit combination were averaged. The data points were fitted with the equation stimulation=efficacy/(1+(potency/concentration of modulator)). The values given in the Tables (Summary) are obtained by fitting individual curves and subsequently averaging efficacy and potency. […]
GABA was then applied in combination with various concentrations of the compound of formula (II) between 0.3 nM and 3,000 nM to produce a cumulative concentration response curve. […] In each batch of oocytes the stimulation by 1 μM diazepam was determined in five oocytes, extent of stimulation averaged and defined as 100%. Where indicated, stimulation by the compound of formula (II) in each batch of oocytes was expressed as a percentage of this value in the corresponding batch. […]

Another series concerns the target T2, α3β2γ2 GABAA receptors (Rattus norvegicus, UniProt P18508+P20236).
T2 construct: expressed in transfected cells; host or cells: Xenopus laevis oocytes, cRNA microinjection
The description is as above. As to conditions: 1 μM; different batches of oocytes, n=5 each. Type of series: cell-based.
From the text: as §1, §2, §3
(§4) Currents were measured using a home-built amplifier in combination with a xy-recorder or were digitized using a MacLab/200 (AD Instruments) and stored on a computer. Xenopus oocytes were voltage clamped using the two-electrode voltage clamp technique (electrode resistance about 0.8 MΩ) at −80 mV. […]
(§5) GABA was applied for 20-50 seconds without or in combination with other drugs and a washout period of 4 minutes was allowed to ensure full recovery from desensitization, which was experimentally determined. […]
(§6) Data is given as mean±SD, except in the figures where data is shown for clarity as mean±SEM. Current stimulation was calculated as follows: stimulation (%)=((I(GABA+modulator)−I(GABA))/I(GABA))×100%, where I is the current amplitude. […]
(§7) Current stimulation by diazepam was determined in each batch of oocytes as follows. […]

For another series, the target named is T3, α2β2γ2 GABAA receptors (Rattus norvegicus, UniProt P18508+P23576).
T3 construct: expressed in transfected cells; host or cells: Xenopus laevis oocytes, cRNA microinjection
T3 sequence (P23576 29-451): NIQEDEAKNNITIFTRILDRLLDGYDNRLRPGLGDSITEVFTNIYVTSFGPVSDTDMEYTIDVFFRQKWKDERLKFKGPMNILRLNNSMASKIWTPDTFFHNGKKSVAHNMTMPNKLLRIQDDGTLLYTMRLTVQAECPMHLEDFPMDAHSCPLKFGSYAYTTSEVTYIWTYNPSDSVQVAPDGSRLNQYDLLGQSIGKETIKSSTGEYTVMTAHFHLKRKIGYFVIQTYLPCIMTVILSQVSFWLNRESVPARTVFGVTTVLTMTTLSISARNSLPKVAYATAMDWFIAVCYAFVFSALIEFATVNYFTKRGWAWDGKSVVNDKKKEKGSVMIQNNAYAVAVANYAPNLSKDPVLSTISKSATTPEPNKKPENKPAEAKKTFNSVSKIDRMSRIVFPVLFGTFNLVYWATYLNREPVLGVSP
T3 sequence (P63138 25-474 partner limits assumed): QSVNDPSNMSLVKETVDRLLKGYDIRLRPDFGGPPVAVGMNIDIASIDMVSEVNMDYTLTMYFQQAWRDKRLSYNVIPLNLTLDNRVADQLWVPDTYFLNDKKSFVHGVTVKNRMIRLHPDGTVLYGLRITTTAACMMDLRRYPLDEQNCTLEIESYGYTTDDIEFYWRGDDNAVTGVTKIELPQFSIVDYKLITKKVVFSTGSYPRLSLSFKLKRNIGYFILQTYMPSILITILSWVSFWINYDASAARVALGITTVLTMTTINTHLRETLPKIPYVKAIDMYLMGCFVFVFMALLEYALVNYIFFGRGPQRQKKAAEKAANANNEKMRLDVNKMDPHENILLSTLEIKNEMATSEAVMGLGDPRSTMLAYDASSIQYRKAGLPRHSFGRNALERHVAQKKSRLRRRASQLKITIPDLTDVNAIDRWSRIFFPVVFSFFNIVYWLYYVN
T3 sequence (P18508 39-466): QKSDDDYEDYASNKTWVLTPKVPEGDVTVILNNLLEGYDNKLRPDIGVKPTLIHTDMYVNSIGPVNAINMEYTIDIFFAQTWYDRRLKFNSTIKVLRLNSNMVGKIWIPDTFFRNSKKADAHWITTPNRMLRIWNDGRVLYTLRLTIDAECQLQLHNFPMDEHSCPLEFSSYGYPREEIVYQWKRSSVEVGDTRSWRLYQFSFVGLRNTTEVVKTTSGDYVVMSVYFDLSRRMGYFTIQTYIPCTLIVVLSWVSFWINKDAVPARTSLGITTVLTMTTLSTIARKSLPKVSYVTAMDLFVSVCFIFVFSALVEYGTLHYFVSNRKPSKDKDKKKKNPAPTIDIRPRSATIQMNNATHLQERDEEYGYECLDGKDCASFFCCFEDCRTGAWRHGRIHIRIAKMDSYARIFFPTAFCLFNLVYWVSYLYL
The description is as above. In kind it is cell-based. As to conditions: 1 μM; different batches of oocytes, n=5 each.
From the text: as §1, §2, §3, §4, §5, §6, §7

Another series concerns the target T4, α5β2γ2 GABAA receptors (Rattus norvegicus, UniProt P18508+P19969).
T4 construct: expressed in transfected cells; host or cells: Xenopus laevis oocytes, cRNA microinjection
The description is as above. Type of series: cell-based. Conditions: 1 μM; different batches of oocytes, n=5 each.
From the text: as §1, §2, §3, §4, §5, §6, §7

For series [1] the following is noted: elderly; cited from earlier work.
The next series deals with GABAA receptors. As to conditions: 20 mg, PET, in man; cited from earlier work.

T1 sequence (P62813 28-455): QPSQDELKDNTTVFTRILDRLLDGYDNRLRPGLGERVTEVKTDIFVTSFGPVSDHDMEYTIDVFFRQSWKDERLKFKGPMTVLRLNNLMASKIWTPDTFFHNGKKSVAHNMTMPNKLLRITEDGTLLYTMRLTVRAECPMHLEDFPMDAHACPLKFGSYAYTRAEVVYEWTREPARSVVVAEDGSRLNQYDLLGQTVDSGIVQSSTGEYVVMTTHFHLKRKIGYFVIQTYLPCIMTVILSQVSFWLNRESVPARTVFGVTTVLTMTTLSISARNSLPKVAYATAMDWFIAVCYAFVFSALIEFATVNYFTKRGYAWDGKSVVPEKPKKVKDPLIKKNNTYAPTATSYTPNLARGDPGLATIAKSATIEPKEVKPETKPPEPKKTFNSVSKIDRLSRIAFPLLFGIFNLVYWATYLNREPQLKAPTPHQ
T1 sequence (P63138 25-474 partner limits assumed): as the sequence (P63138 25-474 partner limits assumed) above
T1 sequence (P18508 39-466): as the sequence (P18508 39-466) above
T2 sequence (P20236 29-493): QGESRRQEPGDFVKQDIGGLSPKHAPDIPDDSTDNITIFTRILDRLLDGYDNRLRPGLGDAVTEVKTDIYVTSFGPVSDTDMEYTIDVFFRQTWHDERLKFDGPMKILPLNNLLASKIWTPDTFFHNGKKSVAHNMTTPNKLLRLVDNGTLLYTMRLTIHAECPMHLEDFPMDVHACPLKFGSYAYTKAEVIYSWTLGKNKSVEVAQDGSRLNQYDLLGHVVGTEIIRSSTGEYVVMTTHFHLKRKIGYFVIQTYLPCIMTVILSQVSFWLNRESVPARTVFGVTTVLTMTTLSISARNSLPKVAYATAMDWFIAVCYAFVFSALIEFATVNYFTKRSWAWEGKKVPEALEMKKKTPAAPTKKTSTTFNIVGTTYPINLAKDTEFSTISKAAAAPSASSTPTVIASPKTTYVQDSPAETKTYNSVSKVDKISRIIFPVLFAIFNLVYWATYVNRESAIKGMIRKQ
T2 sequence (P63138 25-474 partner limits assumed): as the sequence (P63138 25-474 partner limits assumed) above
T2 sequence (P18508 39-466): as the sequence (P18508 39-466) above
T4 sequence (P19969 32-464 limits assumed): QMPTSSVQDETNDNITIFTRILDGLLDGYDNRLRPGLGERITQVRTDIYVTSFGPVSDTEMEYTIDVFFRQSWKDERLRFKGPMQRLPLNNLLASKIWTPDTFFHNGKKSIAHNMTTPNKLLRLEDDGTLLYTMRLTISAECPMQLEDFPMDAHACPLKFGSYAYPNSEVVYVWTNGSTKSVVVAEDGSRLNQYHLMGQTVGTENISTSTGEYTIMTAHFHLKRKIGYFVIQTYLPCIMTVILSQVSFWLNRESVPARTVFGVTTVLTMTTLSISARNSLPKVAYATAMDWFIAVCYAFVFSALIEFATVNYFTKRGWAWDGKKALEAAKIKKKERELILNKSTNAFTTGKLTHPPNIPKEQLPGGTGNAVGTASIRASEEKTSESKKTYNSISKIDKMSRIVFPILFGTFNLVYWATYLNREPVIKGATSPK
T4 sequence (P63138 25-474 partner limits assumed): as the sequence (P63138 25-474 partner limits assumed) above
T4 sequence (P18508 39-466): as the sequence (P18508 39-466) above

As for `CN1C(=O)CN=C(c2ccccc2)c2cc(Cl)ccc21` [diazepam], the Current stimulation at α1β2γ2 GABAA receptors (1 μM, different batches of oocytes, n=5 each) was 223±28% and 178±20%; on α3β2γ2 GABAA receptors, 417±85% and 417±144%; on α2β2γ2 GABAA receptors it was 264±61% and 280±71% and 318±62%; at α5β2γ2 GABAA receptors, 237±97% and 160±4%.

As for `CN1CCN(C(=O)O[C@H]2c3nccnc3C(=O)N2c2ccc(Cl)cn2)CC1` [eszopiclone], the half-life in series [1] is 9 h.

Consider `Cc1ccc(-c2nc3ccc(C)cn3c2CC(=O)N(C)C)cc1` [zolpidem], for which, in the series with GABAA receptors, the receptor occupancy entry is “about 20%”. Further, the “Receptor subtype affinity in comparison to α2β2γ2, α3β2γ2 and α5β2γ2” value on α1β2γ2 GABAA receptors is listed as “higher affinity at α1β2γ2 GABAA receptors”. Besides, on α1β2γ2 GABAA receptors (GABAA receptor benzodiazepine site), the “Intrinsic activity / type of allosteric modulation” value is listed as “full agonist”.

Values taken from patent publication US10370378B2, “Treatment of sleep disorders” (Evotec International GmbH, priority 2007, dated 2019).
